Data taken from PubChem BioAssay AID2060605 (Molecular Pharmacology Branch, DTP, NCI, 2025).

System: 947758-054-R-J2-PDC spheroid growth, percent test/control
Assay: Anticancer human tumor 947758-054-R-J2-PDC patient-derived colon adenocarcinoma cell line growth inhibition [CLK]
Settings: spheroids with HUVEC and MSC; for IC50: curve of first compound; for viability, T/C: stronger effect = lower value
Text: A high-throughput screen of multi-cell type tumor spheroids was designed to identify active combinations of […] and targeted small molecules. Complex spheroids include a stromal component modeled by human endothelial cells (HUVEC) and fibroblasts modeled by human mesenchymal stem cells (MSCs). The concentration ranges selected for each drug and investigational agent were based upon clinically achievable concentrations if the clinical Cmax of the agent was known.
Compounds. The drugs and investigational agents: cirtuvivint (SM08502; NSC835563), CC-671 (NSC850746), vemurafenib (NSC761431), tapotoclax (NSC804041), sotorasib (NSC818433), adagrasib (NSC831453), MRTX-1133 (NSC836407), BAY2416964 (NSC825713), copanlisib (NSC816437), inavolisib (NSC800729), abemaciclib (NSC768073), osimertinib (NSC779217), entinostat (NSC756642), eltanexor (KPT-8602, NSC794443), venetoclax (NSC766270), ceralasertib (NSC777638), bortezomib (NSC756655), olaparib (NSC753686), talazoparib (NSC767125), alisertib (NSC759677), peposertib (NSC802822), gemcitabine (NSC613327), 5-fluorouracil (NSC19893), SN-38 (NSC673596), oxaliplatin (NSC266046), paclitaxel (NSC125973), and doxorubicin (NSC123127), were obtained from the National Cancer Institute (NCI) Developmental Therapeutics Program Chemical Repository. The FDA-approved anticancer drug set is available from the Developmental Therapeutics Program at https://dtp.cancer.gov/organization/dscb/obtaining/available plates.htm. […] The stock solutions were prepared in dimethyl sulfoxide (DMSO, Sigma-Aldrich, St. Louis, MO, cat. D2650), except for the platinum complexes which were prepared in saline (Quality Biological, Gaithersburg, MD, cat. 114-055-101), at 800-fold the tested concentration and stored at -70 degrees C prior to their use. All drugs and investigational agents were tested over a range starting from a high concentration at or near the clinical Cmax and decreasing in half-log increments. If the clinical Cmax for an agent had not been determined, the highest concentration tested was 10 microM.
Cell Culture. All cells were maintained in an incubator at 37 degrees C and 5% CO2 with 95% humidity. The PDC lines were cultured according to standard operating procedures established by the NCI PDMR. Briefly, all PDCs were thawed and cultured in Matrigel-coated flasks prepared with a working solution of 1X Ham's F-12 nutrient mix, without supplementation (Invitrogen, Waltham, MA, cat. 11765054), 100 U/mL penicillin-streptomycin (Invitrogen, cat. 15140122), and 2.5% Matrigel (Corning Inc., Corning, NY, cat. 354248) for the first three passages. The 947758-054-R-J2-PDC line was cultured in 6B/Colon 1A media, which includes advanced DMEM/F-12 (Thermo Fisher Scientific, cat. 12634028), 10 mM HEPES (Thermo Fisher Scientific, cat. 15630080), 1X GlutaMAX supplement (Thermo Fisher Scientific, cat. 35050061), 0.1 mg/mL primocin (InvivoGen, cat. ant-pm-2), 10% defined fetal bovine serum, heat inactivated (HyClone Laboratories Inc., cat. SH30070.03HI), 1.25 mM N-Acetyl-L-cysteine (Sigma-Aldrich, cat. A9165), 10 mM nicotinamide (Sigma-Aldrich, cat. N0636), 1X B-27 supplement (Thermo Fisher Scientific, cat. 17504044), 1X N-2 supplement (Thermo Fisher Scientific, cat. 17502048), and 10 microM Y-27632 dihydrochloride (Tocris Bioscience, cat. 1254). The 876862-298-R-J1-PDC was cultured in 6E media, which includes all 6B/Colon 1A media components plus 50% L-WRN conditioned media (ATCC, cat. CRL-3276), 50 ng/mL recombinant human EGF recombinant protein (hEGF; Thermo Fisher Scientific, cat. PHG0311), 10 ng/mL recombinant human fibroblast growth factor 10 (hGFG-10; PeproTech, cat. 100-26), 1 ng/mL recombinant human fibroblast growth factor 2 (hFGF-2; PeproTech, cat. 100-18B), and 1 µM prostaglandin E2 (PGE2; Tocris, cat. 2296). The 227483-062-R1-J1-PDC line was cultured in Panc media, containing all 6E components except hFGF-2, with the addition of 500 nM SB-431542 (Selleckchem, cat. S1067) and 10 nM gastrin (Tocris, cat. 3006). […]

[1] = second compound 0.0316 µM, first compound 0.0316 µM
[2] = second compound 0.0316 µM, first compound 0.1 µM
[3] = second compound 0.0316 µM, first compound 0.316 µM
[4] = second compound 0.0316 µM, first compound 1 µM
[5] = second compound 0.0316 µM, first compound 3.16 µM
[6] = second compound 0.0316 µM, first compound 10 µM
[7] = second compound 0.1 µM, first compound 0.0316 µM
[8] = second compound 0.1 µM, first compound 0.1 µM
[9] = second compound 0.1 µM, first compound 0.316 µM
[10] = second compound 0.1 µM, first compound 1 µM
[11] = second compound 0.1 µM, first compound 3.16 µM
[12] = second compound 0.1 µM, first compound 10 µM
[13] = second compound 0.316 µM, first compound 0.0316 µM
[14] = second compound 0.316 µM, first compound 0.1 µM
[15] = second compound 0.316 µM, first compound 0.316 µM
[16] = second compound 0.316 µM, first compound 1 µM
[17] = second compound 0.316 µM, first compound 3.16 µM
[18] = second compound 0.316 µM, first compound 10 µM
[19] = second compound 1 µM, first compound 0.0316 µM
[20] = second compound 1 µM, first compound 0.1 µM
[21] = second compound 1 µM, first compound 0.316 µM
[22] = second compound 1 µM, first compound 1 µM
[23] = second compound 1 µM, first compound 3.16 µM
[24] = second compound 1 µM, first compound 10 µM
[25] = second compound 3.16 µM, first compound 0.0316 µM
[26] = second compound 3.16 µM, first compound 0.1 µM
[27] = second compound 3.16 µM, first compound 0.316 µM
[28] = second compound 3.16 µM, first compound 1 µM
[29] = second compound 3.16 µM, first compound 3.16 µM
[30] = second compound 3.16 µM, first compound 10 µM
[31] = second compound 10 µM, first compound 0.0316 µM
[32] = second compound 10 µM, first compound 0.1 µM
[33] = second compound 10 µM, first compound 0.316 µM
[34] = second compound 10 µM, first compound 1 µM
[35] = second compound 10 µM, first compound 3.16 µM
[36] = second compound 10 µM, first compound 10 µM
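Also: spheroids exposed to compounds for one week before readout.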
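For viability, T/C in this document: 100% = DMSO vehicle control wells.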

Structure (SMILES): C=C(F)C(=O)N1CCN(c2nc(OCC3CCCN3C)nc3c2CCN(c2cccc4cccc(Cl)c24)C3)CC1CC#N (centres undefined) + CN1CCN(c2cc(C(=O)Nc3cc4cc(-c5cnn(C)c5)ccc4cn3)ccn2)CC1
- IC50 (second compound 0.0316 µM): 6610 nM
- IC50 (second compound 0.1 µM): 7050 nM
- IC50 (second compound 0.316 µM): < 31.6 nM
- IC50 (second compound 1 µM): < 31.6 nM
- IC50 (second compound 3.16 µM): < 31.6 nM
- IC50 (second compound 10 µM): < 31.6 nM
- viability, T/C [1]: 122%
- viability, T/C [2]: 116%
- viability, T/C [3]: 109%
- viability, T/C [4]: 107%
- viability, T/C [5]: 146%
- viability, T/C [6]: 10.6%
- viability, T/C [7]: 149%
- viability, T/C [8]: 201%
- viability, T/C [9]: 181%
- viability, T/C [10]: 220%
- viability, T/C [11]: 154%
- viability, T/C [12]: 4.69%
- viability, T/C [13]: 4.5%
- viability, T/C [14]: 5.53%
- viability, T/C [15]: 5.34%
- viability, T/C [16]: 6.82%
- viability, T/C [17]: 8.16%
- viability, T/C [18]: 1.5%
- viability, T/C [19]: 0.18%
- viability, T/C [20]: 1.06%
- viability, T/C [21]: 0.17%
- viability, T/C [22]: 2.25%
- viability, T/C [23]: 0.12%
- viability, T/C [24]: 0.96%
- viability, T/C [25]: 1.29%
- viability, T/C [26]: 0.25%
- viability, T/C [27]: 0.21%
- viability, T/C [28]: 0.24%
- viability, T/C [29]: 0.14%
- viability, T/C [30]: 0.12%
- viability, T/C [31]: 1.57%
- viability, T/C [32]: 1.69%
- viability, T/C [33]: 0.29%
- viability, T/C [34]: 0.31%
- viability, T/C [35]: 1.29%
- viability, T/C [36]: 1.41%

Structure (SMILES): C=CC(=O)N1CCN(c2nc(=O)n(-c3c(C)ccnc3C(C)C)c3nc(-c4c(O)cccc4F)c(F)cc23)C(C)C1 (centres undefined) + CN1CCN(c2cc(C(=O)Nc3cc4cc(-c5cnn(C)c5)ccc4cn3)ccn2)CC1
- IC50 (second compound 0.0316 µM): > 10000 nM
- IC50 (second compound 0.1 µM): > 10000 nM
- IC50 (second compound 0.316 µM): < 31.6 nM
- IC50 (second compound 1 µM): < 31.6 nM
- IC50 (second compound 3.16 µM): < 31.6 nM
- IC50 (second compound 10 µM): < 31.6 nM
- viability, T/C [1]: 118%
- viability, T/C [2]: 143%
- viability, T/C [3]: 122%
- viability, T/C [4]: 98.4%
- viability, T/C [5]: 113%
- viability, T/C [6]: 99.8%
- viability, T/C [7]: 172%
- viability, T/C [8]: 199%
- viability, T/C [9]: 161%
- viability, T/C [10]: 234%
- viability, T/C [11]: 167%
- viability, T/C [12]: 77.3%
- viability, T/C [13]: 4.67%
- viability, T/C [14]: 7.3%
- viability, T/C [15]: 6.68%
- viability, T/C [16]: 5.29%
- viability, T/C [17]: 3.14%
- viability, T/C [18]: 1.35%
- viability, T/C [19]: 0.18%
- viability, T/C [20]: 3.35%
- viability, T/C [21]: 0.19%
- viability, T/C [22]: 0.19%
- viability, T/C [23]: 0.18%
- viability, T/C [24]: 0.21%
- viability, T/C [25]: 2.2%
- viability, T/C [26]: 0.99%
- viability, T/C [27]: 0.31%
- viability, T/C [28]: 0.31%
- viability, T/C [29]: 0.72%
- viability, T/C [30]: 0.51%
- viability, T/C [31]: 0.46%
- viability, T/C [32]: 0.29%
- viability, T/C [33]: 1.59%
- viability, T/C [34]: 0.39%
- viability, T/C [35]: 0.98%
- viability, T/C [36]: 0.57%
